Assay: xn = mol fraction of the nth substance listed
Conditions: Gas, Buoyancy - hydrostatic balance with magnetic suspension - one sinker, x2 = 0.8977

N#N [nitrogen] + C
Conditions	mass density [kg/m3]
170.59 K, 761.2 kPa	10.0103
170.59 K, 1037.8 kPa	14.0966
170.59 K, 1287.8 kPa	18.0625
170.6 K, 455.1 kPa	5.7907
187.47 K, 422.8 kPa	4.8286
187.47 K, 722.4 kPa	8.4419
187.47 K, 1064.8 kPa	12.7954
187.47 K, 1349.6 kPa	16.6251
217.54 K, 441.1 kPa	4.2954
217.54 K, 1298.9 kPa	13.1778
217.54 K, 1475.3 kPa	15.0994
217.55 K, 724.1 kPa	7.1436
217.55 K, 1017.9 kPa	10.1853
240.48 K, 975.3 kPa	8.695
240.48 K, 1256.7 kPa	11.3113
240.48 K, 1594.5 kPa	14.5212
240.49 K, 438.2 kPa	3.8367
240.49 K, 715.8 kPa	6.3263
261 K, 145.7 kPa	1.1633
261 K, 436.6 kPa	3.5148
261 K, 729 kPa	5.9093
261 K, 1021.7 kPa	8.3427
270.05 K, 133.3 kPa	1.0285
270.05 K, 424.6 kPa	3.2976
270.05 K, 731.4 kPa	5.7195
270.05 K, 1025.7 kPa	8.0721
270.05 K, 1195.4 kPa	9.445
